{
  "source": "paper PMC7407272",
  "about": "“Induction of Lysosome Membrane Permeabilization as a Therapeutic Strategy to Target Pancreatic Cancer Stem Cells” (Cancers, 2020)",
  "key": {"RSK4(KD2-C-t.)": {"target": "T1, RSK4(KD2-C-t.) (Homo sapiens, UniProt Q9UK32)", "T1 construct": "RSK4(KD2-C-t.); purchased DiscoveRx KINOMEscan", "T1 sequence (Q9UK32 401-745 limits assumed)": "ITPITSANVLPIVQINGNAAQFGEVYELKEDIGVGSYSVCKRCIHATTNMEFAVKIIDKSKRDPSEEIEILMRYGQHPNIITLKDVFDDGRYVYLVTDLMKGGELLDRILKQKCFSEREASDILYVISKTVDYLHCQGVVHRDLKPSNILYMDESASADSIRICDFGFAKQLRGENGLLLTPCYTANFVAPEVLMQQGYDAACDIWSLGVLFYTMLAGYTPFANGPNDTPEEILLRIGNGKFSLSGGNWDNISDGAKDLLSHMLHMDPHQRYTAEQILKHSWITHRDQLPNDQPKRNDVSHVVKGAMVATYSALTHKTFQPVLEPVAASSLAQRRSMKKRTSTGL", "assay": "KINOMEscan", "format": "binding", "conditions": "read-out: % Ctrl"}, "DYRK2": {"target": "T2, DYRK2 (Homo sapiens, UniProt Q92630)", "T2 construct": "purchased DiscoveRx KINOMEscan", "assay": "KINOMEscan", "format": "binding", "conditions": "read-out: % Ctrl"}, "TGFBR1": {"target": "T3, TGFBR1 (Homo sapiens, UniProt P36897)", "T3 construct": "purchased DiscoveRx KINOMEscan", "T3 sequence (P36897 34-503)": "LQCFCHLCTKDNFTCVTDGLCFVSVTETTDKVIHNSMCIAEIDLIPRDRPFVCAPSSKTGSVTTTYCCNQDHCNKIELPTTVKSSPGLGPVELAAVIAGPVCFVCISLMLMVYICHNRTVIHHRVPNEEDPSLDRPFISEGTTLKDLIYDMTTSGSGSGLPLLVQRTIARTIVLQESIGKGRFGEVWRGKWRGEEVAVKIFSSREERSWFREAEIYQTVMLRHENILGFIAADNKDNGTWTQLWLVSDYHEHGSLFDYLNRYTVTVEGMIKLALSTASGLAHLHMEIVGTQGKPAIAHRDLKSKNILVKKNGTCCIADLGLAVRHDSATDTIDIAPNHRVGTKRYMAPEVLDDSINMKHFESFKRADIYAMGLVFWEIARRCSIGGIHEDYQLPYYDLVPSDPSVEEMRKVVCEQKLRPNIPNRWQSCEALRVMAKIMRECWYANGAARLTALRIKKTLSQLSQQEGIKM", "assay": "KINOMEscan", "format": "binding", "conditions": "read-out: % Ctrl"}, "CLK2": {"target": "T4, CLK2 (Homo sapiens, UniProt P49760)", "T4 construct": "purchased DiscoveRx KINOMEscan", "assay": "KINOMEscan", "format": "binding", "conditions": "read-out: % Ctrl"}, "ABL1-nonP": {"target": "T5, ABL1-nonP (Homo sapiens, UniProt P00519)", "T5 construct": "purchased DiscoveRx KINOMEscan", "assay": "KINOMEscan", "format": "binding", "conditions": "read-out: % Ctrl"}, "ERN1": {"target": "T6, ERN1 (Homo sapiens, UniProt O75460)", "T6 construct": "purchased DiscoveRx KINOMEscan", "T6 sequence (O75460 19-977)": "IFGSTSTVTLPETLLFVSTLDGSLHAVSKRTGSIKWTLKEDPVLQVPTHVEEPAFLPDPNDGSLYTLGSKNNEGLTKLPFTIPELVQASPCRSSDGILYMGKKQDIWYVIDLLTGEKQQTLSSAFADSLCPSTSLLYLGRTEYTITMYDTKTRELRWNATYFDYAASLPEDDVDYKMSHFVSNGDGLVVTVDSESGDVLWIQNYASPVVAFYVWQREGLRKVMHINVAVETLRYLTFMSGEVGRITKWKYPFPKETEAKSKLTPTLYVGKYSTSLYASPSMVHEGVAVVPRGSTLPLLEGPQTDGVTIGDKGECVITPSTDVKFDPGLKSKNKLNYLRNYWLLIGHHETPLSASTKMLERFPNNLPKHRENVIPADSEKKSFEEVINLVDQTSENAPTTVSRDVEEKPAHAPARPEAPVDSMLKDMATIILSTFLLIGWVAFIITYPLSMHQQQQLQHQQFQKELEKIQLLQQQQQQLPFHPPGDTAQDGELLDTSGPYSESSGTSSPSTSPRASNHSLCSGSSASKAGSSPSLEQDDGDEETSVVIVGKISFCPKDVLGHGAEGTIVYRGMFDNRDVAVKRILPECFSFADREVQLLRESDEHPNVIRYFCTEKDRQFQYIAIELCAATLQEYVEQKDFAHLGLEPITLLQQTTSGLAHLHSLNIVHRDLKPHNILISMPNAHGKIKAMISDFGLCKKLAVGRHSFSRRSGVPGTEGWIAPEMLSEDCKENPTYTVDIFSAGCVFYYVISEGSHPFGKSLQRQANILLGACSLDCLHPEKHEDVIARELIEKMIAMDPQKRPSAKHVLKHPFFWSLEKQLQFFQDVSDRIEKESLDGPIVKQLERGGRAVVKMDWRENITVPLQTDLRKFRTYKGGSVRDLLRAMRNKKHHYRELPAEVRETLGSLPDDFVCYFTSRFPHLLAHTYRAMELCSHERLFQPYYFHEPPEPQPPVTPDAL", "assay": "KINOMEscan", "format": "binding", "conditions": "read-out: % Ctrl"}, "ITK": {"target": "T7, ITK (Homo sapiens, UniProt Q08881)", "T7 construct": "purchased DiscoveRx KINOMEscan", "assay": "KINOMEscan", "format": "binding", "conditions": "read-out: % Ctrl"}, "MAP3K15": {"target": "T8, MAP3K15 (Homo sapiens, UniProt Q6ZN16)", "T8 construct": "purchased DiscoveRx KINOMEscan", "assay": "KINOMEscan", "format": "binding", "conditions": "read-out: % Ctrl"}, "PIK3C2B": {"target": "T9, PIK3C2B (Homo sapiens, UniProt O00750)", "T9 construct": "purchased DiscoveRx KINOMEscan", "assay": "KINOMEscan", "format": "binding", "conditions": "read-out: % Ctrl"}, "KIT(L576P)": {"target": "T10, KIT(L576P) (Homo sapiens, UniProt P10721, L576P)", "T10 construct": "purchased DiscoveRx KINOMEscan", "T10 sequence (P10721 26-976 L576P)": "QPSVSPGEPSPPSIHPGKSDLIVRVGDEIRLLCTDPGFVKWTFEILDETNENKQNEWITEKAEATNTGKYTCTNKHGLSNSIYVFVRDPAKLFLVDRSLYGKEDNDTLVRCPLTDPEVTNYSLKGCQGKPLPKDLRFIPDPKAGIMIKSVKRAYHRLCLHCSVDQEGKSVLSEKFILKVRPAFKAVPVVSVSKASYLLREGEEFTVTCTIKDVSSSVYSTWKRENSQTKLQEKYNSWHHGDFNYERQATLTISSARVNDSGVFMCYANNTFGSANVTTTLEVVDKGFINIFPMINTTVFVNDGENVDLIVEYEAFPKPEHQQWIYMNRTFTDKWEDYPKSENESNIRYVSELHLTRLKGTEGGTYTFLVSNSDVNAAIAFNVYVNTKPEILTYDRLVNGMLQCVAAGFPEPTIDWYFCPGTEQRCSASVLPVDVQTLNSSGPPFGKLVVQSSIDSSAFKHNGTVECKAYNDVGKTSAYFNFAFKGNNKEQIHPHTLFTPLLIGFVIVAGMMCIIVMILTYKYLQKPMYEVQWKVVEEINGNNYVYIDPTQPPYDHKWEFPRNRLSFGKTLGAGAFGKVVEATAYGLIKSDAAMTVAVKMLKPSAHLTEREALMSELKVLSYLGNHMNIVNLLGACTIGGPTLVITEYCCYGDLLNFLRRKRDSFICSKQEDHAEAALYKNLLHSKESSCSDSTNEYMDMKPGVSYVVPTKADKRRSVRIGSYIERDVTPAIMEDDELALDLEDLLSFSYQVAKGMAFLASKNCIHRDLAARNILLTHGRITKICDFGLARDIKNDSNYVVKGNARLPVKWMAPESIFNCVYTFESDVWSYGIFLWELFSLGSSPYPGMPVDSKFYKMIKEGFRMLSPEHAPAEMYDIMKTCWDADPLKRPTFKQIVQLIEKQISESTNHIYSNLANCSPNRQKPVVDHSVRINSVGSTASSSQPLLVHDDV", "assay": "KINOMEscan", "format": "binding", "conditions": "read-out: % Ctrl"}, "FLT3": {"target": "T11, FLT3 (Homo sapiens, UniProt P36888)", "T11 construct": "purchased DiscoveRx KINOMEscan", "assay": "KINOMEscan", "format": "binding", "conditions": "read-out: % Ctrl"}, "RSK1(KD1-N-t.)": {"target": "T12, RSK1(KD1-N-t.) (Homo sapiens, UniProt Q15418)", "T12 construct": "RSK1(KD1-N-t.); purchased DiscoveRx KINOMEscan", "T12 sequence (Q15418 1-391 limits assumed)": "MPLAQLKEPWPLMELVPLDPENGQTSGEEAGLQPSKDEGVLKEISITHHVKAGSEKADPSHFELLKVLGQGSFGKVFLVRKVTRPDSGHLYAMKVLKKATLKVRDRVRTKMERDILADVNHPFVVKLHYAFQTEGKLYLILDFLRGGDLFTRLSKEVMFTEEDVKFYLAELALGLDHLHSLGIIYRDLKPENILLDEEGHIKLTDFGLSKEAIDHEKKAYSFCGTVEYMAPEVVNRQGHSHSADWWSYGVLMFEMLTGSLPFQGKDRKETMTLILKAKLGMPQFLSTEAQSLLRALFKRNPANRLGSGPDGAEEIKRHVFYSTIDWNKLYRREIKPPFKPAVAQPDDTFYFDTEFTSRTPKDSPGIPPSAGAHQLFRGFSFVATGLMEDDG", "assay": "KINOMEscan", "format": "binding", "conditions": "read-out: % Ctrl"}, "PIK3C2G": {"target": "T13, PIK3C2G (Homo sapiens, UniProt O75747)", "T13 construct": "purchased DiscoveRx KINOMEscan", "assay": "KINOMEscan", "format": "binding", "conditions": "read-out: % Ctrl"}, "S6K1": {"target": "T14, S6K1 (Homo sapiens, UniProt P23443)", "T14 construct": "purchased DiscoveRx KINOMEscan", "assay": "KINOMEscan", "format": "binding", "conditions": "read-out: % Ctrl"}, "CAMK1D": {"target": "T15, CAMK1D (Homo sapiens, UniProt Q8IU85)", "T15 construct": "purchased DiscoveRx KINOMEscan", "assay": "KINOMEscan", "format": "binding", "conditions": "read-out: % Ctrl"}, "PRKG1": {"target": "T16, PRKG1 (Homo sapiens, UniProt Q13976)", "T16 construct": "purchased DiscoveRx KINOMEscan", "assay": "KINOMEscan", "format": "binding", "conditions": "read-out: % Ctrl"}, "p38-delta": {"target": "T17, p38-delta (Homo sapiens, UniProt O15264)", "T17 construct": "purchased DiscoveRx KINOMEscan", "assay": "KINOMEscan", "format": "binding", "conditions": "read-out: % Ctrl"}, "PDAC2 cells": {"tested_on": "PDAC2 cells", "assay": "CD133 flow cytometry", "format": "cell-based, human", "conditions": "1.25 or 2.5 µM, 72 h", "protocol": "Cells were analyzed with a 4-laser Attune NxT Acoustic Cytometer (ThermoFisher Scientific). […] For lysosomes quantification, Acridine Orange (AO) (A1301, Thermo Fisher Scientific, Waltham, MA, USA) or Lysotracker Deep Red (DR) (L12492, Molecular probes, Life Technologies, Waltham, MA, USA) were used. AO fluorescence was assessed with two combinations of excitation and emission spectra: BL1 (Ex488/Em695/40, equal to the far-red channel (>670 nm)) and BL3 (Ex488/Em695/40, equal to the far-red channel (>670 nm)) Lysotracker DR fluorescence was assessed with RL1 (Ex638/Em670/14). […] For all assays, DAPI was used to mark and exclude dead cells, and data were analyzed using the software FlowJo v9.3 (Tree Star Inc., Ashland, OR, USA).\nFigure S3. […] Apoptosis was determined 72 h post treatment initiation. […]"}, "MEK6": {"target": "T18, MEK6 (Homo sapiens, UniProt P52564)", "T18 construct": "purchased DiscoveRx KINOMEscan", "assay": "KINOMEscan", "format": "binding", "conditions": "read-out: % Ctrl"}, "MST2": {"target": "T19, MST2 (Homo sapiens, UniProt Q13188)", "T19 construct": "purchased DiscoveRx KINOMEscan", "assay": "KINOMEscan", "format": "binding", "conditions": "read-out: % Ctrl"}, "KIT(V559D)": {"target": "T20, KIT(V559D) (Homo sapiens, UniProt P10721, V559D)", "T20 construct": "purchased DiscoveRx KINOMEscan", "T20 sequence (P10721 26-976 V559D)": "as the sequence (P10721 26-976 L576P) above, with V534D, P551L counted along it", "assay": "KINOMEscan", "format": "binding", "conditions": "read-out: % Ctrl"}, "NEK6": {"target": "T21, NEK6 (Homo sapiens, UniProt Q9HC98)", "T21 construct": "purchased DiscoveRx KINOMEscan", "assay": "KINOMEscan", "format": "binding", "conditions": "read-out: % Ctrl"}, "NEK7": {"target": "T22, NEK7 (Homo sapiens, UniProt Q8TDX7)", "T22 construct": "purchased DiscoveRx KINOMEscan", "assay": "KINOMEscan", "format": "binding", "conditions": "read-out: % Ctrl"}, "NEK5": {"target": "T23, NEK5 (Homo sapiens, UniProt Q6P3R8)", "T23 construct": "purchased DiscoveRx KINOMEscan", "assay": "KINOMEscan", "format": "binding", "conditions": "read-out: % Ctrl"}, "EGFR(G719C)": {"target": "T24, EGFR(G719C) (Homo sapiens, UniProt P00533, G719C)", "T24 construct": "purchased DiscoveRx KINOMEscan", "T24 sequence (P00533 25-1210 G719C)": "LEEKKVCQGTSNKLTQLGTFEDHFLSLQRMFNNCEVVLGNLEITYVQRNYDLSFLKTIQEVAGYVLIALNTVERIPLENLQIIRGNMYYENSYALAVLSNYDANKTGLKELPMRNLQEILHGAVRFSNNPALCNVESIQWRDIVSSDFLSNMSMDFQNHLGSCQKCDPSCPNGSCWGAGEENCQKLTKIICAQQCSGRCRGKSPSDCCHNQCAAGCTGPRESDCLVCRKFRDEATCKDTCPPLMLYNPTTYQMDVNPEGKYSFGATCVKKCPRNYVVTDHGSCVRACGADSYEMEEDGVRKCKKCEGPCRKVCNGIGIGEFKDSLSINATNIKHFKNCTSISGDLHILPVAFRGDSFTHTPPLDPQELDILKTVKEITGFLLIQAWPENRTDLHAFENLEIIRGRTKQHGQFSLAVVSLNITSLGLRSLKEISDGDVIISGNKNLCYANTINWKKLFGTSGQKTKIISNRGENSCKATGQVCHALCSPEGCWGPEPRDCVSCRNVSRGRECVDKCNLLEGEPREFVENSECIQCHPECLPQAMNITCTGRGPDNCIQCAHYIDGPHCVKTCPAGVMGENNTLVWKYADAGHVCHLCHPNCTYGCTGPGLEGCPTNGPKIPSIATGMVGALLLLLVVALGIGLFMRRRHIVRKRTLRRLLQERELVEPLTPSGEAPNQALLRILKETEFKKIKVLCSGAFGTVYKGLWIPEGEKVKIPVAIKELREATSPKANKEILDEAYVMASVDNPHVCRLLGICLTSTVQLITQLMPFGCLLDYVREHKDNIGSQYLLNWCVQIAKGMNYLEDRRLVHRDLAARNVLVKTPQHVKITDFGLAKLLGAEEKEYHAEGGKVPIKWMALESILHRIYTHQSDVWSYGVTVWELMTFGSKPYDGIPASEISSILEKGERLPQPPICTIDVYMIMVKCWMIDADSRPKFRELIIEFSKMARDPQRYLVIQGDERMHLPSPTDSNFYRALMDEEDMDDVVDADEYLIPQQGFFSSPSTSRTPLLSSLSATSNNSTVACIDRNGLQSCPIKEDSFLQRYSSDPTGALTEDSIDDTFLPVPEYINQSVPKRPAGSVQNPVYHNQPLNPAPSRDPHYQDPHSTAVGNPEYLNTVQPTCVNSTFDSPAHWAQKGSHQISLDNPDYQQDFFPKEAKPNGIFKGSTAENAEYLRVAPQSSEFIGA", "assay": "KINOMEscan", "format": "binding", "conditions": "read-out: % Ctrl"}, "TAK1": {"target": "T25, TAK1 (Homo sapiens, UniProt O43318)", "T25 construct": "purchased DiscoveRx KINOMEscan", "assay": "KINOMEscan", "format": "binding", "conditions": "read-out: % Ctrl"}, "ABL1(T315I)-P": {"target": "T26, ABL1(T315I)-P (Homo sapiens, UniProt P00519, T315I)", "T26 construct": "purchased DiscoveRx KINOMEscan", "assay": "KINOMEscan", "format": "binding", "conditions": "read-out: % Ctrl"}},
  "data": [
    {"smiles": "CN1CCC(CNc2ccc3ncc(C(=O)Nc4cccc(OC(F)(F)F)c4)n3n2)CC1", "note": "[Cpd 2]", "values": [
      {"measurement": "remaining binding at 1 µM", "setting": "RSK4(KD2-C-t.)", "result": 84, "unit": "%"},
      {"measurement": "remaining binding at 1 µM", "setting": "DYRK2", "result": 86, "unit": "%"},
      {"measurement": "remaining binding at 1 µM", "setting": "TGFBR1", "result": 100, "unit": "%"},
      {"measurement": "remaining binding at 1 µM", "setting": "CLK2", "result": 81, "unit": "%"},
      {"measurement": "remaining binding at 1 µM", "setting": "ABL1-nonP", "result": 100, "unit": "%"},
      {"measurement": "remaining binding at 1 µM", "setting": "ERN1", "result": 79, "unit": "%"},
      {"measurement": "remaining binding at 1 µM", "setting": "ITK", "result": 95, "unit": "%"},
      {"measurement": "remaining binding at 1 µM", "setting": "MAP3K15", "result": 100, "unit": "%"},
      {"measurement": "remaining binding at 1 µM", "setting": "PIK3C2B", "result": 48, "unit": "%"},
      {"measurement": "remaining binding at 1 µM", "setting": "KIT(L576P)", "result": 88, "unit": "%"},
      {"measurement": "remaining binding at 1 µM", "setting": "FLT3", "result": 92, "unit": "%"},
      {"measurement": "remaining binding at 1 µM", "setting": "RSK1(KD1-N-t.)", "result": 97, "unit": "%"},
      {"measurement": "remaining binding at 1 µM", "setting": "PIK3C2G", "result": 59, "unit": "%"},
      {"measurement": "remaining binding at 1 µM", "setting": "S6K1", "result": 93, "unit": "%"},
      {"measurement": "remaining binding at 1 µM", "setting": "CAMK1D", "result": 94, "unit": "%"},
      {"measurement": "remaining binding at 1 µM", "setting": "PRKG1", "result": 100, "unit": "%"},
      {"measurement": "remaining binding at 1 µM", "setting": "p38-delta", "result": 100, "unit": "%"},
      {"measurement": "percentage of CD133+ cells", "setting": "PDAC2 cells", "result": "reduced"},
      {"measurement": "remaining binding at 1 µM", "setting": "MEK6", "result": 98, "unit": "%"},
      {"measurement": "remaining binding at 1 µM", "setting": "MST2", "result": 100, "unit": "%"},
      {"measurement": "remaining binding at 1 µM", "setting": "KIT(V559D)", "result": 95, "unit": "%"},
      {"measurement": "remaining binding at 1 µM", "setting": "NEK6", "result": 100, "unit": "%"},
      {"measurement": "remaining binding at 1 µM", "setting": "NEK7", "result": 92, "unit": "%"},
      {"measurement": "remaining binding at 1 µM", "setting": "NEK5", "result": 98, "unit": "%"},
      {"measurement": "remaining binding at 1 µM", "setting": "EGFR(G719C)", "result": 82, "unit": "%"},
      {"measurement": "remaining binding at 1 µM", "setting": "TAK1", "result": 70, "unit": "%"},
      {"measurement": "remaining binding at 1 µM", "setting": "ABL1(T315I)-P", "result": 100, "unit": "%"}
    ]}
  ]
}
